Patent US11357786B2, “Synthetic disugar hydrocarbons as natural analogs to control microbial behaviors” (Syracuse University, priority 2014, dated 2022)

Columns and labels:
Assay type in all cases: cell-based, Pseudomonas aeruginosa
24 h old PAO1 biofilm = assay: Crystal violet biofilm dispersion assay, maltose derivatives (Example 1); conditions: concentration not given
Experimental: Chemical dispersion of already formed biofilm is often more relevant to medical application, and more challenging than biofilm inhibition assays, for which the agents are introduced at the onset of an experiment. We screened the ability of maltose derivatives at 110 μM to disperse 24 h old biofilm.
PAO1 was allowed to grow for 24 h at 37° C. After 24 h, bacterial culture was pipetted out and replaced with 200 μL of 110 μM maltose hydrocarbons and sterile water (control). After 1 h treatment with maltose hydrocarbons, biofilm was fixed and quantified using crystal violet dye as described above. The amount of dispersed biofilm was determined via comparison of the amount of biofilm at 24 h in the presence of maltose hydrocarbons versus the amount of biofilm in the “no compound” positive control at 24 h (wells with water treatment).
Predetermined amounts maltose derivatives stock solution was added to the 200 μL bacterial culture in 96 well plate so that the final concentration of the agent reaches the desired values of 1, 5, 10, 20, 40, 85, 113, 140 μM. Biofilm inhibition and dispersion assay was carried as described previously.

[1] = tested on: rhl quorum sensing system; assay: rhl quorum sensing gene reporter assay (prhlI-LVAgfp); conditions: natural autoinducers present
Source text: The ability of the maltoside derivatives to antagonize the two quorum sensing circuits las and/or rhl of P. aeruginosa was investigated by using two reporter strains (PAO1/plasI-LVAgfp, PAO1/prhlI-LVAgfp). These reporter strains produce natural AHL signals, and binding of such signal molecules to the Lux-type receptor proteins ([…]) activates the expression of green fluorescent protein (GFP) encoded by the plasmid.
One of the recent approach for a nonmicrobicidal control of biofilm aims to develop agents that disrupt bacterial cell-to-cell communication by acting as mimics to the natural molecules (autoinducer) that bind […], which are encoded by las and rhl gene. The binding of these mimics with lasR and rhlR proteins either activates or represses the expression of lasI or rhlI.^6 In gene reporter assay, the expression of lasI and rhlI proteins is quantified by measuring expression of green fluorescent protein (GFP) fused to lasI and rhlI genes.^5 Two reporter strains of Pseudomonas aeruginosa (PAO1/plasI_LVAgfp and PAO1/prhlI_LVAgfp) express green fluorescence protein on activation of las or rhl quorum sensing system. The activation or repression of las or rhl quorum sensing system in PA was tested by various DSHs.
Strains PAO1/plasI-LVAgfp and PAO1/prhlI-LVAgfp were grown overnight in LB-media that was supplemented with 300 μg/mL carbenicillin and after 16 hours, the bacteria were sub cultured in LB media (supplemented with 300 μg/mL carbenicillin) to OD600 as 0.01. The OD600 was allowed to reach 0.1 and then 200 μL of culture was aliquoted into the wells of 96-well microtiter plate. DSHs were then added to assigned wells at two different concentrations (85 μM and 160 μM). No agent was added to the well for positive control. The plates then incubated at 37° C. for 24 h in a rotary shaking incubator (250 rpm). The culture from each well was then transferred to corresponding wells of a black walled flat-bottom, 96-well plate (μClear, Greiner-One 655096). The fluorescence and OD absorbance in each well was measured by Synergy 2 multi-mode microplate reader with aGen5 data analysis software. […] Fluorescence was measured at an excitation wavelength of 500 nm and an emission wavelength of 540 nm.
For an antagonist assay, overnight culture of P. aeruginosa PAO1/plasI-LVAgfp (las system) or PAO1/prhlI-LVAgfp (rhl system) in LB broth (supplemented with 300 μg/mL carbenicillin) was grown from a single colony on a LB agar plate supplemented with 300 μg/mL carbenicillin. […] The fluorescence and OD absorbance in each well was measured by Synergy 2 multi-mode microplate reader with Gen5 data analysis software. […] Fluorescence was measured at an excitation wavelength of 500 nm and an emission wavelength of 540 nm. […]

PAO1-EGFP biofilm = assay: Biofilm on steel coupons, fluorescence / CLSM; conditions: 160 μM, 24 h, LB media
Experimental: A crystal violet (CV) assay was used to measure the amount of PAO1 biofilm formed after 24 h of bacterial inoculation. The fluorescence of green fluorescent proteins (GFP) expressed by PAO1-GFP was measured to directly quantify bacterial adhesion on polystyrene black 96 well plates with and without maltose derivatives after 2 h of bacterial inoculation. To evaluate the potential of maltose derivatives as both anti-biofilm and anti-adhesion agents, they were compared to a brominated furanone (BF8) known to inhibit biofilm formation, and two generic surfactants, sodium dodecyl sulfate (SDS) and tetra (ethylene glycol) monododecyl ether (C12EG4OH). […] P. aeruginosa strain PAO1-EGFP that constitutively producing green fluorescent protein was allowed to form biofilm on sterile steel coupons.
Confocal laser scanning microscopy (CLSM) based biofilm inhibition assay. Steel coupons (˜1×1 cm) were washed with EtOH, dried under a stream of nitrogen and then sterilized in an autoclave. Overnight culture of PAO1/EGFP (OD600 ˜1.0) grown in LB media (supplemented with 300 μg/mL of carbenicillin), was sub-cultured to OD600˜0.01 and then the OD600 was allowed to reach ˜0.1. Aliquot (600 μL) of PAO1/EGFP subculture OD600˜0.1 was then added into the wells of a 24-well micro titer plate. DSHs were then introduced into the assigned wells to reach a resultant concentration of 160 μM. Bacterial sub-culture with no agent served as positive control. Sterile steel coupons were then placed into the wells and the plates were wrapped with saran wrap and incubated for 24 h at 37° C. under static conditions. After 24 hours, the steel coupons were removed and washed by dipping in PBS buffer (2 washes) and the dried by holding with a forcep and gently dabbing the edge on a bleached paper (KIM wipes). The dried steel coupons were viewed under confocal laser scanning microscope (CLSM). Images were taken at 4 random locations on each steel coupons. Z-stacked images were also taken to determine the relative thickness of the biofilm.

Row | SMILES | Anti-biofilm activity (dispersion) (24 h old PAO1 biofilm) | Change of GFP fluorescence, rhl reporter strain PAO1/prhlI-LVAgfp (antagonist assay) [1] | Change of GFP fluorescence, rhl reporter strain PAO1/prhlI-LVAgfp (antagonist assay) ([1]; listed as 13: SFαC) | PAO1-EGFP biofilm on stainless steel coupons (CLSM) (PAO1-EGFP biofilm) | Change of GFP fluorescence, rhl reporter strain PAO1/prhlI-LVAgfp (antagonist assay) ([1]; listed as 12: SFβC)
1 | CCCCCCCCCCCCOCCOCCOCCOCCO [C12EG4OH, tetra (ethylene glycol) monododecyl ether, reference compound] | did not show any anti-biofilm activities | – | – | – | –
2 | CCCCCCCCCCCCOS(=O)(=O)[O-].[Na+] [SDS, sodium dodecyl sulfate, reference compound] | did not show any anti-biofilm activities | – | – | – | –
3 | CC(C)CCCC(C)CCCC(C)CCO[C@H]1O[C@H](CO)[C@@H](O[C@@H]2O[C@H](CO)[C@@H](O)[C@H](O)[C@H]2O)[C@H](O)[C@H]1O (stereo partly drawn) [SFαC (13), saturated farnesyl-α-cellobioside] | – | neither SFβC (12) nor SFαC (13) caused a significant change in the fluorescence | no significant change in the fluorescence | decreased the fluorescence signal significantly | –
4 | CC(C)CCCC(C)CCCC(C)CCO[C@@H]1O[C@H](CO)[C@@H](O[C@@H]2O[C@H](CO)[C@@H](O)[C@H](O)[C@H]2O)[C@H](O)[C@H]1O (stereo partly drawn) [SFβC (12), saturated famesyl-β-cellobioside] | – | neither SFβC (12) nor SFαC (13) caused a significant change in the fluorescence | – | decreased the fluorescence signal significantly | no significant change in the fluorescence
